Results: ChEMBL document CHEMBL1146660 (Bioorg Med Chem Lett, 2004)

Experiments:
[1] = target: T1, M-phase inducer phosphatase 2 (Homo sapiens, UniProt P30305); test: Concentration required to inhibit human Cell division cycle 25B activity
T1 sequence (P30305 whole entry): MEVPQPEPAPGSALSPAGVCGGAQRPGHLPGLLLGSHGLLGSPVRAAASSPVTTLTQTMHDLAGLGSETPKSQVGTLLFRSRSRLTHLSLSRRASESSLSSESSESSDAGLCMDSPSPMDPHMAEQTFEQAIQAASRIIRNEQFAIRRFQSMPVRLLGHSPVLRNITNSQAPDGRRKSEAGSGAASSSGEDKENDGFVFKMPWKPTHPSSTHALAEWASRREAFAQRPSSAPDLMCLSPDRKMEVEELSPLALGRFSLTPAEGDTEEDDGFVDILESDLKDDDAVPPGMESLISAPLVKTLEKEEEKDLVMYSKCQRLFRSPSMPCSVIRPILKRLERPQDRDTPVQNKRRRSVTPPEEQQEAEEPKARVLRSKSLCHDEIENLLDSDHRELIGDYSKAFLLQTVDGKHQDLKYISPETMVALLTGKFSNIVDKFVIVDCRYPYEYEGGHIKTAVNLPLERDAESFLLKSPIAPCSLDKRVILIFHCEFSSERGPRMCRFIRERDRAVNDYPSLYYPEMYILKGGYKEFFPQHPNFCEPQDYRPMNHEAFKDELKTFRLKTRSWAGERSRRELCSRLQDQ

[2] = target: T2, M-phase inducer phosphatase 1 (Homo sapiens, UniProt P30304); test: Concentration required to inhibit human Cell division cycle 25A activity
T2 sequence (P30304 whole entry): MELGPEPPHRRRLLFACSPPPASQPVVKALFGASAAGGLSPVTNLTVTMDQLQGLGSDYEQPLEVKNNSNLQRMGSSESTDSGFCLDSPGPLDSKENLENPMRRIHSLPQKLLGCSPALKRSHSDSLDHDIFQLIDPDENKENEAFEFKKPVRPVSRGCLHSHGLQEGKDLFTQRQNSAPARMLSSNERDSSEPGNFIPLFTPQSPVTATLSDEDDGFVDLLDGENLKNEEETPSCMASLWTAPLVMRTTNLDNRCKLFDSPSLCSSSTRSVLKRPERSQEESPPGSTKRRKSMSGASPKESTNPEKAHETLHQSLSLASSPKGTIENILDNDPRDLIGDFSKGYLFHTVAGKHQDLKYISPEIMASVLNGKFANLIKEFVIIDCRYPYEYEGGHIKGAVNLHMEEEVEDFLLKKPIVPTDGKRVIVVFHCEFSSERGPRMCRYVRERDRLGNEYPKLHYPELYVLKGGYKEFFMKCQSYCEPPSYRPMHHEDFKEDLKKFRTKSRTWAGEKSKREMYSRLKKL

[3] = target: T2, M-phase inducer phosphatase 1; test: Concentration required to inhibit human Cell division cycle 25A activity; Value ranges from […] to […]

IC50 [1] [µM] | IC50 [2] [µM] | SMILES | IC50 [3] [µM]
8 | 5.5 | CC(C)CCC[C@@H](C)[C@H]1CCC2/C(=C/C(=O)O)CCC[C@@]21C (stereo partly drawn) | 
 |  | C=C1CC[C@H](O)C/C1=C/C=C1\CCC[C@@]2(C)C1CC[C@@H]2[C@H](C)CCCC(C)C (stereo partly drawn) | 0.89
